Experimental findings from patent publication US20240424115A1, “LONG-ACTING INTERLEUKIN-15 RECEPTOR AGONISTS AND RELATED IMMUNOTHERAPEUTIC COMPOSITIONS AND METHODS” (Nektar Therapeutics, priority 2017, published 2024) are described below.

Some results are limits rather than exact numbers.

The test system of one data set is CT-26 cells. Kind of data set: CT-26 lung metastasis model.
Data set [1] is described as follows: Single dose PK study in rats (plasma concentration). Format: in vivo. To be noted: rats, single i.v. 0.3, 0.15, 0.075 mg/kg or s.c. 0.15 mg/kg. The procedure: Following administration, blood was collected at days 1-7 post administration (with multiple samples collected over the first 24 hours following administration). […]
A short description of data set [2]: Single dose PK study in mice (plasma concentration). To be noted: C57BL/6 mice, single i.v. 0.3 mg/kg.
Description: C57BL/6 mice (n=3/group) were administered a single intravenous dose of IL-15 (control) at 0.3 mg/kg) or of Conjugate 2 at a dose of 0.3 mg/kg. Following administration, blood samples were collected at various time points post administration (24 hours, 48 hours, 78 hours, 96 hours). […] Finally, at each time point, plasma concentration of drug was determined.
For PK analysis, Conjugate 1 was administered as a single intravenous dose at 0.3 mg/kg in balb/c mice (n=3). Following administration, mice were humanely sacrificed and plasma was collected 24, 48, 72, 96, 120 and 144 hours post treatment. From a separate study, mice were administered a single intravenous dose of IL-15 (0.5 mg/kg). Samples from these mice were collected at the indicated time points within 6 hours of treatment.
Balb/c mice (n=3/group) were administered a single intravenous dose of IL-15 (500 ug/kg) or of Conjugate 1 at 10, 30, 100, 300 and 1000 μg/kg. Blood samples were collected at the indicated time points post administration (conjugate 1:24, 48, 72, 96, 120, 144, 240 hours; IL-15 control: 0.03, 0.08, 0.25, 0.5, 1, 2, 4, 6, 8, hours) and plasma concentration of drug was determined.
For the next data set, the system named is CD8 T cells. In words: Immunophenotypic markers in blood and spleen on Day 13 of the CT-26 lung metastasis study. The class given is in vivo, Balb/c mice. The protocol: Blood and spleenocytes were analyzed on Day 13 for the changes in the immunophenotypic markers using flow cytometry and marker antibodies conjugated with various fluorochromes. Conjugate 2 administered at 0.3, 1, and 3 mg/kg induced a dose-dependent increase of CD8 T cells 1.5, 2.5, and 3.3-fold versus vehicle in blood, respectively. Similar observations were made in spleen with increases of 1.3, 1.7, and 2.2-fold at 0.3, 1, and 3 mg/kg dose levels versus vehicle.

The subject of data set [3] is CD4, CD8, and NK cells. Kind of data set: In vivo IL-15 signaling (STAT5 phosphorylation in lymphocytes) in non-human primates. More on the design: species or system cynomolgus monkeys. To be noted: cyno, single i.v. 0.5 mg/kg. The protocol:
In the study, cynomolgus monkeys (cyno), one female and one male, were each intravenously administered a single dose of Conjugate 2 (0.5 mg/kg). A series of blood samples were taken from each animal both prior to treatment (day-6 and-1) and at multiple intervals following treatment for assessment by flow cytometry of STAT5 phosphorylation in various types of lymphocytes (CD4, CD8, and NK cells). Results are provided in FIGS. 9A (CD4), 9B (CD8), and 9C (NK).
(§1) Cynomolgus monkeys (n=3-4 males), were administered a single intravenous injection of Conjugate 1 at 0.003, 0.01, 0.1 mg/kg or a vehicle control. Blood samples were collected at the indicated time points pre and post dose (−5, −2, 1, 2, 3, 4, 5, 6, 7, 10, 14, 17 days) and subjected to flow cytometric analysis to examine pharmacodynamic effects within lymphocyte populations. Proliferation (% Ki-67) and JAK/STAT signaling (% pSTAT5) for NK cells, CD8 T cells, and CD4 T cells were examined, with the results shown in FIGS. 45A-C and FIGS. 46A-C, respectively.

For data set [4], the system named is CD4, CD8, and NK cells. Kind of data set: In vivo IL-15 signaling (STAT5 phosphorylation in lymphocytes) in mice. To be noted: C57BL/6 mice, single i.v. 0.3 mg/kg. The source says:
Conventional approaches, such as those involving radiolabeling a compound, administering the compound in vivo, and determining its clearance, can be used to assess whether a compound proposed to be a long-acting, IL-15 R agonist is “long-acting” (i.e., has a clearance that is longer than that of IL-15 administered in the same in vivo system). For the purposes herein, the long acting nature of a long-acting IL-15 R agonist may be, and is typically determined using flow cytometry to measure STAT5 phosphorylation in lymphocytes at various time points after administration of the agonist to be evaluated in mice. As a reference, the signal is lost by around 24 hours with IL-15, but is sustained for a period greater than that for a long-acting IL-15 agonist.
Mice were dosed as described in Example 6 above to assess in-vivo signaling as assessed by degree of STAT5 phosphorylation. Degree of STAT5 phosphorylation in various lymphocytes (CD4, CD8, and NK cells) was assessed by staining whole blood for leukocyte surface markers and pSTAT5, followed by measurement by flow cytometry. Results are shown in FIGS. 8A and 8 B for IL-15 and for Conjugate 2, respectively.
[PK methods previously described herein].
STAT5 phosphorylation in CD4 T cells was determined by using a CD3+CD4+CD8-pSTAT5+ marker combination. FIG. 43 is a plot of pSTAT5 phosphorylation percent positivity within CD4 T cells over time (at 0.25, 1, 6, 24, 48, 72, 96 and 120 hours post administration) at a dose of 0.03 mg/kg (blue, solid squares) or 0.3 mg/kg (orange, solid circles). The vehicle over time (black) and pre-dose (open circles) levels are also shown.

Data set [5] concerns NK cells, CD8 T cells, CD4 T cells. In words: In vivo PD study in non-human primates: lymphocyte cell numbers and proliferation. Also noted: species or system cynomolgus monkeys. To be noted: cyno, single i.v. 500 μg/kg. The procedure:
In the study, cynomolgus monkeys, one female and one male, were administered 500 μg/kg of Conjugate 2 intravenously. A series of blood samples were taken from each animal before treatment (day-6 and -1) and at multiple intervals following single dose treatment for assessment by flow cytometry of lymphocyte cell numbers (NK cells, CD8 T-cells, etc.) and activation.
NK cell counts were determined to assess the ability of exemplary Conjugate 2 to induce sustained NK cell proliferation in non-human primates; results are shown in FIGS. 16A and 16B. NK cells and their proliferation in blood from cynomolgus monkey were identified by flow cytometry. Acquisition and analysis of NK cells (CD45+ CD3− CD16+) and their proliferation status (CD45+CD3−CD16+ Ki67+) were conducted using BD FACS DIVA software. Absolute values for NK cells and proliferating NK cells were used to calculate % Ki67 positivity within the NK population. Pre and post-treatment values were plotted using Prism.
CD8 T cell counts were also determined as illustrated in FIG. 17 for each animal from pre-dose to 14 days post-administration. Specifically, CD8 T cells were defined as CD45+CD3+CD4−CD8+. Blood from the monkeys was also subject to immunophenotyping as previously described. In monkey, CD8 T cells increased in a sustained manner, an effect lasting for at least 10 days. This plot further exemplifies the ability of an exemplary long acting IL-15 receptor agonist, Conjugate 2, to induce proliferation and sustained increases in numbers of CD8 T-cells post-administration.
In monkey, CD8 TEM cells were defined as CD45+CD3+CD4−CD8+CD45Ra−CD197− and CD8 Tcm were defined as CD45+CD3+CD4−CD8+CD45Ra−CD197+. Immunophenotyping was conducted by flow cytometry with sample acquisition on DIVA software and data analysis on Flowjo software. Graphs were plotted using Prism. […] The figures indicate that both CD8 effector and central memory T cell populations proliferate in response to exemplary Conjugate 2.
In this study, cynomolgus monkeys (cyno), one female and one male, were each intravenously administered a single dose of Conjugate 1 (0.1 mg/kg). A series of blood samples were taken from each animal over a 14-day time course and subjected to flow cytometry analysis of various lymphocytes (CD8 T cells, Ki-67 percent positivity within total CD8, CD8 central memory T cells (TCM) and CD8 effector memory T cells (Tem), NK cells and Ki-67 percent positivity of NK cells).
as §1
In cynomolgus monkey, CD8 naïve and memory subpopulations were defined by CD45Ra, CD197 and CD95. […] Within the CD8 Tem, […] and Tscm populations, Conjugate 1 induced robust % Ki-67 expression in a dose dependent manner with detectable increases in proliferation marker positivity starting as early as day 2, reaching a maximum at day 5 and returning to baseline between days 10-14. The Ki-67 expression and kinetics within the CD8 populations support the sustained increase in CD8 T cell numbers shown in Example 27 and FIGS. 47A-D.

In data set [6] the target is IL-15Rα:Fc. Kind of data set: SPR (BIAcore), compared with unmodified IL-15. For orientation: SPR reads the build-up and loss of mass on a sensor chip optically.
Data set [7] addresses IL-15Rα:Fc. In words: SPR (BIAcore), IL-15Rα:Fc captured by immobilised goat anti-human Fc, test article injected in 3-fold dilutions from 10 µM.
Data set [8] has as its target IL-15Rα:Fc. Kind of data set: SPR (BIAcore), IL-15Rα:Fc captured by immobilised goat anti-human Fc, KD from kd/ka.

Chain of IL-15Rα:Fc (Q13261 31-205): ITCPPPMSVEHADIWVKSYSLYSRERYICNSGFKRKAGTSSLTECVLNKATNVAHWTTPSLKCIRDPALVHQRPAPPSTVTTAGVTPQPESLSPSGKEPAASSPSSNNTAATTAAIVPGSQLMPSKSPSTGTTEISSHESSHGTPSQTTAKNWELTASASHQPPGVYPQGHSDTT
Description for CT-26 cells: At day 0, 6-8 week-old female Balb/c mice were inoculated with 1×10^5 mouse CT-26 cells by tail vein injection. On day 1, post 24 h of CT-26 cells being administered, mice were divided into ten groups. […] Each group was assigned one intervention as follows: vehicle, phosphate buffered saline (Group A); native IL-15 alone (Group B); Conjugate 2 at a dose of 0.03 mg/kg (Group C); Conjugate 2 at a dose of 0.1 mg/kg (Group D); Conjugate 2 at a dose of 0.3 mg/kg (Group E); Conjugate 2 at a dose of 1.0 mg/kg (Group F); Conjugate 2 at a dose of 3.0 mg/kg (Group G); for Conjugate 1: vehicle, phosphate buffered saline (Group H); Conjugate 1 at a dose of 0.03 mg/kg (Group I) and Conjugate 1 at a dose of 0.3 mg/kg (Group J). Animals were dosed at days 1, 5, and 10.
Post 13 days from the date of CT-26 tumor cells administration, mice were anesthetized, and blood and spleen cells were collected for further analysis of immunophenotype markers, while lungs were fixed for 24-48 h in Bouins solution containing picric acid and formaldehyde.
The number of lung tumor nodules were counted under a dissection per each lung and mean of lung nodules for each group was determined. The statistical significance was also obtained between the vehicle group vs intervention groups using unpaired students t test.
Balb/c mice received tail vein injection of 1×10^5 CT-26 colorectal carcinoma cells. The following day, mice (n=9/group) were treated weekly, twice, with Conjugate 1 (0.03 or 0.3 mg/kg) or vehicle control. Five days after the second injection, mice were humanely sacrificed and lung nodules were counted.
CT-26 mice (n=7-11/group) were injected with anti-asialo GM1 to deplete NK cells or two different controls (lgG or PBS), then injected with 1×10^5 CT-26 tumor cells. Mice were then treated with Conjugate 2 at 0.3 mg/kg dosed on days 1, 5 and 10 post tumor cell injection or vehicle control. Mice were sacrificed and lung nodules were counted three days after the last day of treatment.

With “N-(2-methoxyPEG-ethyl)-7-(4-((2-methoxyPEG-ethyl) amino)-4-oxobutyl)-9-ethyl-9 H-fluorene-4-carboxamide carbamate-IL-15 [Conjugate 2]”, the “efficacy (lung nodule inhibition) after NK cell depletion” value in the data set on CT-26 cells (0.3 mg/kg days 1, 5, 10, anti-asialo GM1) is reported as “abolished when mice lacked NK cells”. Besides, the “reduction in lung metastases in comparison to vehicle” value in the data set with CT-26 cells (Example 13, i.v. days 1, 5, 10, dose not stated) is given as 65%. Moreover, in [1], the “exposure to drug” value was “sustained and dose-proportional exposure to drug”. This substance gave a T1/2 in data set [2] of 20 to 30 h. In [2], the “time with measurable concentrations in plasma” value was “greater than 1 week”. In addition, in the data set on CD8 T cells (blood and spleen), the “increase of Bcl-2+MFI in CD8” value was no more than 1.5 fold. Further, the “increase of CD8 T cells versus vehicle” value with CD8 T cells (blood, 0.3 mg/kg) is on record as 1.5 fold; in the data set on CD8 T cells (blood, 1 mg/kg), 2.5 fold; with CD8 T cells (blood, 3 mg/kg) it was 3.3 fold; in the data set on CD8 T cells (spleen, 0.3 mg/kg), 1.3 fold; with CD8 T cells (spleen, 1 mg/kg), 1.7 fold; in the data set on CD8 T cells (spleen, 3 mg/kg) it was 2.2 fold. The “CD8 T cell proliferation (Ki-67) change compared to vehicle” value in the data set with CD8 T cells (blood, high dose 3 mg/kg) turned out to be 5.3 fold; in the data set on CD8 T cells (blood, low dose 0.3 mg/kg), 1.7 fold; in the data set on CD8 T cells (spleen, high dose 3 mg/kg) it was 6.9 fold; in the data set with CD8 T cells (spleen, low dose 0.3 mg/kg), 2.5 fold; in the data set with CD8 T cells (spleen, mid dose 1 mg/kg), 5.7 fold. Moreover, the “return of STAT5 phosphorylation to near pre-dose levels” value in the data set with CD4, CD8, and NK cells [3] was 5 to 10 days. Besides, the “duration of in-vivo STAT5 phosphorylation activity in NK and CD8 cells” value with CD4, CD8, and NK cells [4] was greater than 72 h. The “CD8 TEM and TCM cell counts” value in data set [5] was “induces a significant and sustained increase in CD8 effector and central memory T cell populations”. The “NK cell proliferation (Ki67, cell counts)” value in data set [5] is given as “effective to induce sustained NK cell proliferation”. The “duration of CD8 T cell increase” value in data set [5] is reported as “at least 10 days”.
In general, koff refers to the first-order rate constant of dissociation. A high value points to fast dissociation. What is called kon is the rate constant with which the complex forms. Higher therefore signals fast association. The term Kd denotes the concentration at which binding is half-saturated. Consider “mono-mPEG-SBA40K-IL-15 (Conjugate 1) (from UniProt P40933 49-162) (ligand)”, for which the percent of the alpha receptor affinity of IL-15 retained with IL-15Rα:Fc [6] turned out to be 80%. Further, in the data set with IL-15Rα:Fc [7], the off-rate constant (koff) was found to be 0.000103 s⁻¹ and the association rate constant (kon) amounted to 492000 M⁻¹ s⁻¹. Further, in the data set with IL-15Rα:Fc [8], the Kd worked out at 0.209 nM.
